Laboratory results from ChEMBL document CHEMBL4627327, “Antibacterial activity of singly and doubly modified salinomycin derivatives” (Bioorg Med Chem Lett, 2020).
In brackets after ≈: the same amount, converted by molar mass. Activity calls are given as the source filed them. The calls are words filed in the database; no cut-off is given here.

What was measured:
[1] = Genotoxicity in rec-positive Bacillus subtilis H17 assessed as diameter of inhibition zone at 256 ug measured after 24 hrs by rec-assay; type: toxicity; details: in vivo
[2] = system: Staphylococcus epidermidis; assay: Antibacterial activity against methicillin-resistant Staphylococcus epidermidis isolate 610 assessed as bacterial growth inhibition measured after 18 hrs by CLSI protocol based two-fold serial microdilution method; type: functional; details: isolate 610, 18 h
Pseudomonas aeruginosa [3] = assay: Antibacterial activity against Pseudomonas aeruginosa ATCC 27853 assessed as bacterial growth inhibition measured after 18 hrs by CLSI protocol based two-fold serial microdilution method; type: functional, organism-based
[4] = system: Staphylococcus epidermidis; assay: Antibacterial activity against methicillin-resistant Staphylococcus epidermidis isolate 574 assessed as bacterial growth inhibition measured after 18 hrs by CLSI protocol based two-fold serial microdilution method; type: functional; details: isolate 574, 18 h
[5] = system: Staphylococcus epidermidis; assay: Antibacterial activity against Staphylococcus epidermidis ATCC 35984 assessed as bacterial growth inhibition measured after 18 hrs by CLSI protocol based two-fold serial microdilution method; type: functional
Staphylococcus aureus [6] = assay: Antibacterial activity against methicillin-resistant Staphylococcus aureus isolate 584 assessed as bacterial growth inhibition measured after 18 hrs by CLSI protocol based two-fold serial microdilution method; type: functional; details: isolate 584, 18 h
Staphylococcus aureus [7] = assay: Antibacterial activity against methicillin-resistant Staphylococcus aureus isolate 612 assessed as bacterial growth inhibition measured after 18 hrs by CLSI protocol based two-fold serial microdilution method; type: functional; details: isolate 612, 18 h
Enterococcus hirae = assay: Antibacterial activity against Enterococcus hirae ATCC 10541 assessed as bacterial growth inhibition measured after 18 hrs by CLSI protocol based two-fold serial microdilution method; type: functional
Staphylococcus aureus [8] = assay: Antibacterial activity against methicillin-resistant Staphylococcus aureus isolate 620 assessed as bacterial growth inhibition measured after 18 hrs by CLSI protocol based two-fold serial microdilution method; type: functional; details: isolate 620, 18 h
Staphylococcus aureus [9] = assay: Antibacterial activity against methicillin-resistant Staphylococcus aureus isolate 583 assessed as bacterial growth inhibition measured after 18 hrs by CLSI protocol based two-fold serial microdilution method; type: functional; details: isolate 583, 18 h
Staphylococcus aureus [10] = assay: Antibacterial activity against methicillin-resistant Staphylococcus aureus isolate 750 assessed as bacterial growth inhibition measured after 18 hrs by CLSI protocol based two-fold serial microdilution method; type: functional; details: isolate 750, 18 h
[11] = system: Staphylococcus epidermidis; assay: Antibacterial activity against methicillin-resistant Staphylococcus epidermidis isolate 609 assessed as bacterial growth inhibition measured after 18 hrs by CLSI protocol based two-fold serial microdilution method; type: functional; details: isolate 609, 18 h
Escherichia coli [12] = assay: Antibacterial activity against Escherichia coli ATCC 25922 assessed as bacterial growth inhibition measured after 18 hrs by CLSI protocol based two-fold serial microdilution method; type: functional, organism-based
[13] = system: Staphylococcus epidermidis; assay: Inhibition of biofilm formation in Staphylococcus epidermidis ATCC 12228 at 1 to 8 ug/ml measured after 24 hrs by crystal violet staining based assay; type: functional, organism-based
Staphylococcus aureus [14] = assay: Antibacterial activity against Staphylococcus aureus NCTC 4163 assessed as bacterial growth inhibition measured after 18 hrs by CLSI protocol based two-fold serial microdilution method; type: functional
[15] = system: Staphylococcus epidermidis; assay: Antibacterial activity against methicillin-resistant Staphylococcus epidermidis isolate 654 assessed as bacterial growth inhibition measured after 18 hrs by CLSI protocol based two-fold serial microdilution method; type: functional; details: isolate 654, 18 h
Staphylococcus aureus [16] = assay: Antibacterial activity against methicillin-resistant Staphylococcus aureus isolate 770 assessed as bacterial growth inhibition measured after 18 hrs by CLSI protocol based two-fold serial microdilution method; type: functional; details: isolate 770, 18 h
Staphylococcus aureus [17] = assay: Antibacterial activity against Staphylococcus aureus ATCC 29213 assessed as bacterial growth inhibition measured after 18 hrs by CLSI protocol based two-fold serial microdilution method; type: functional
[18] = system: Staphylococcus epidermidis; assay: Antibacterial activity against methicillin-resistant Staphylococcus epidermidis isolate 603 assessed as bacterial growth inhibition measured after 18 hrs by CLSI protocol based two-fold serial microdilution method; type: functional; details: isolate 603, 18 h
[19] = system: Staphylococcus epidermidis; assay: Antibacterial activity against methicillin-resistant Staphylococcus epidermidis isolate 602 assessed as bacterial growth inhibition measured after 18 hrs by CLSI protocol based two-fold serial microdilution method; type: functional; details: isolate 602, 18 h
Pseudomonas aeruginosa [20] = assay: Antibacterial activity against Pseudomonas aeruginosa ATCC 15442 assessed as bacterial growth inhibition measured after 18 hrs by CLSI protocol based two-fold serial microdilution method; type: functional, organism-based
[21] = system: Staphylococcus epidermidis; assay: Antibacterial activity against Staphylococcus epidermidis ATCC 12228 assessed as bacterial growth inhibition measured after 18 hrs by CLSI protocol based two-fold serial microdilution method; type: functional
[22] = system: Staphylococcus epidermidis; assay: Antibacterial activity against methicillin-resistant Staphylococcus epidermidis isolate 660 assessed as bacterial growth inhibition measured after 18 hrs by CLSI protocol based two-fold serial microdilution method; type: functional; details: isolate 660, 18 h
Staphylococcus aureus [23] = assay: Antibacterial activity against methicillin-resistant Staphylococcus aureus isolate 621 assessed as bacterial growth inhibition measured after 18 hrs by CLSI protocol based two-fold serial microdilution method; type: functional; details: isolate 621, 18 h
[24] = system: Staphylococcus epidermidis; assay: Inhibition of biofilm formation in Staphylococcus epidermidis ATCC 35984 at 1 to 8 ug/ml measured after 24 hrs by crystal violet staining based assay; type: functional, organism-based
Staphylococcus aureus [25] = assay: Antibacterial activity against Staphylococcus aureus ATCC 6358 assessed as bacterial growth inhibition measured after 18 hrs by CLSI protocol based two-fold serial microdilution method; type: functional
Escherichia coli [26] = assay: Antibacterial activity against Escherichia coli NCTC 8196 assessed as bacterial growth inhibition measured after 18 hrs by CLSI protocol based two-fold serial microdilution method; type: functional, organism-based
Staphylococcus aureus [27] = assay: Antibacterial activity against Staphylococcus aureus ATCC 25923 assessed as bacterial growth inhibition measured after 18 hrs by CLSI protocol based two-fold serial microdilution method; type: functional
[28] = Genotoxicity in rec negative Bacillus subtilis M45 assessed as diameter of inhibition zone at 256 ug measured after 24 hrs by rec-assay; type: toxicity; details: in vivo
Micrococcus luteus = assay: Antibacterial activity against Micrococcus luteus ATCC 9341 assessed as bacterial growth inhibition measured after 18 hrs by CLSI protocol based two-fold serial microdilution method; type: functional

Row | Structure (SMILES) | diameter of the inhibition zone (DIZ) [1] [mm] | MIC [2] [µM] | Activity (Pseudomonas aeruginosa [3]) | MIC [4] [µM] | MIC (Staphylococcus aureus [6]) [µM] | MIC (Staphylococcus aureus [7]) [µM] | MIC (Staphylococcus aureus [8]) [µM] | MIC (Staphylococcus aureus [9]) [µM] | MIC (Staphylococcus aureus [10]) [µM] | MIC [11] [µM] | Activity (Escherichia coli [12]) | inhibition [13] | MIC [15] [µM] | MIC (Staphylococcus aureus [16]) [µM] | MIC [18] [µM] | MIC [19] [µM] | Activity (Pseudomonas aeruginosa [20]) | MIC [22] [µM] | MIC (Staphylococcus aureus [23]) [µM] | inhibition [24] | further results
1 | CC[C@@H](C(=O)[C@@H](C)[C@@H](O)[C@H](C)[C@@H]1O[C@@H]([C@@H](CC)C(=O)ONC(=O)c2ccccc2)CC[C@@H]1C)[C@H]1O[C@]2(C=CC(=O)[C@]3(CC[C@@](C)([C@H]4CC[C@](O)(CC)[C@H](C)O4)O3)O2)[C@H](C)C[C@@H]1C | 20 | 18.4 (≈ 16 µg/mL) | inactive | 2.3 (≈ 2 µg/mL) | 36.9 (≈ 32 µg/mL) | 18.4 (≈ 16 µg/mL) | 18.4 (≈ 16 µg/mL) | 36.9 (≈ 32 µg/mL) | 18.4 (≈ 16 µg/mL) | 9.22 (≈ 8 µg/mL) | inactive | Active | 73.7 (≈ 64 µg/mL) | 73.7 (≈ 64 µg/mL) | 4.61 (≈ 4 µg/mL) | 4.61 (≈ 4 µg/mL) | inactive | 73.7 (≈ 64 µg/mL) | 4.61 (≈ 4 µg/mL) | Active | Activity [5]: Active; Activity (Enterococcus hirae): Active; Activity (Staphylococcus aureus [14]): Active; Activity (Staphylococcus aureus [17]): Active; Activity [21]: Active; Activity (Staphylococcus aureus [25]): Active; Activity (Escherichia coli [26]): inactive; Activity (Staphylococcus aureus [27]): Active; diameter of the inhibition zone (DIZ) [28]: 23 mm; Activity (Micrococcus luteus): Active
2 | CC[C@@H](C(=O)[C@@H](C)[C@@H](O)[C@H](C)[C@@H]1O[C@@H]([C@@H](CC)C(=O)ONC(=O)c2ccccc2O)CC[C@@H]1C)[C@H]1O[C@]2(C=C[C@@H](O)[C@]3(CC[C@@](C)([C@H]4CC[C@](O)(CC)[C@H](C)O4)O3)O2)[C@H](C)C[C@@H]1C | 24 | 2.26 (≈ 2 µg/mL) | inactive | 1.13 (≈ 1 µg/mL) | 4.51 (≈ 4 µg/mL) | 2.26 (≈ 2 µg/mL) | 2.26 (≈ 2 µg/mL) | 2.26 (≈ 2 µg/mL) | 2.26 (≈ 2 µg/mL) | 2.26 (≈ 2 µg/mL) | inactive | Active | 4.51 (≈ 4 µg/mL) | 4.51 (≈ 4 µg/mL) | 2.26 (≈ 2 µg/mL) | 2.26 (≈ 2 µg/mL) | inactive | 4.51 (≈ 4 µg/mL) | 2.26 (≈ 2 µg/mL) | Active | MIC ([5]; ATCC 35984, 18 h): 1 to 16 µg/mL (≈ 1.13 to 18.1 µM); MIC (Enterococcus hirae; ATCC 10541, 18 h): 1 to 16 µg/mL (≈ 1.13 to 18.1 µM); MIC (Staphylococcus aureus [14]; NCTC 4163, 18 h): 1 to 16 µg/mL (≈ 1.13 to 18.1 µM); MIC (Staphylococcus aureus [17]; ATCC 29213, 18 h): 1 to 16 µg/mL (≈ 1.13 to 18.1 µM); MIC ([21]; ATCC 12228, 18 h): 1 to 16 µg/mL (≈ 1.13 to 18.1 µM); MIC (Staphylococcus aureus [25]; ATCC 6358, 18 h): 1 to 16 µg/mL (≈ 1.13 to 18.1 µM); Activity (Escherichia coli [26]): inactive; MIC (Staphylococcus aureus [27]; ATCC 25923, 18 h): 1 to 16 µg/mL (≈ 1.13 to 18.1 µM); diameter of the inhibition zone (DIZ) [28]: 30 mm; MIC (Micrococcus luteus; ATCC 9341, 18 h): 1 to 16 µg/mL (≈ 1.13 to 18.1 µM)
